In the PolyMetriX glass transition set:

glass transition temperature [°C] | SMILES
130.00 | *CCN(CCOC(=O)Nc1ccc(Cc2ccc(NC(=O)O*)cc2)cc1)c1ccc(/N=N/c2ccc([N+](=O)[O-])cc2C)c(C)c1 (repeat unit)
60.00 | *CCN(CCOC(=O)c1cccc(C(=O)O*)c1)c1ccccc1 (repeat unit)
112.00 | *CC(O)COc1ccc(C(C)(C)c2ccc(OCC(O)COc3ccc(NC(=O)CCCCC(=O)Nc4ccc(O*)cc4)cc3)cc2)cc1 (repeat unit)
198.00 | *CCCC(=O)Nc1ccc(Oc2ccc(NC(=O)CCCN3C(=O)c4ccc(C(=O)c5ccc6c(c5)C(=O)N(*)C6=O)cc4C3=O)cc2)cc1 (repeat unit)
60.00 | *CCCCCCCCCCOC(=O)Nc1ccc(Cc2ccc(NC(=O)O*)cc2)cc1 (repeat unit)
122.00 | *CCCCCCCCOc1cccc(NC(=O)c2ccc(C(=O)Nc3cccc(O*)c3)cc2)c1 (repeat unit)
234.00 | *C(=O)NNC(=O)c1ccc([Si](c2ccccc2)(c2ccccc2)c2ccc(C(=O)NNC(=O)c3cncc(*)c3)cc2)cc1 (repeat unit)
177.00 | *C(=O)Oc1ccc(-c2ccc(OC(=O)c3ccc4c(c3)C(=O)N(c3ccc(-c5ccc(N6C(=O)c7ccc(*)cc7C6=O)cc5C)c(C)c3)C4=O)cc2C)c(C)c1 (repeat unit)
201.00 | *CC1CC2CC1C1CCC(CN3C(=O)c4ccc(Oc5ccc6c(c5)C(=O)N(*)C6=O)cc4C3=O)C21 (repeat unit)
60.00 | *CC(COc1ccc(C(C)(C)c2ccc(O*)cc2)cc1)OC(C)=O (repeat unit)
18.00 | *CCCCCCCCCCOC(=O)Nc1ccc(C)c(NC(=O)O*)c1 (repeat unit)
249.00 | *c1ccc(Oc2ccc(N3C(=O)c4ccc(Oc5ccc6cc(Oc7ccc8c(c7)C(=O)N(*)C8=O)ccc6c5)cc4C3=O)cc2)cc1 (repeat unit)
140.00 | *c1cccc(NC(=O)c2ccc(OCCOCCOCCOCCOCCOc3ccc(C(=O)Nc4ccc5[nH]c(*)nc5c4)cc3)cc2)c1 (repeat unit)
132.50 | *CCCCCCNC(=O)c1ccc(C(=O)N*)cc1 (repeat unit)
247.00 | *Oc1ccc(C2(c3ccc(OC(=O)c4ccc(C(*)=O)cc4)c(C)c3)CCC3CCCCC3C2)cc1C (repeat unit)
263.00 | *Oc1ccc(C(=O)NNC(=O)c2ccc(*)cc2)cc1 (repeat unit)
84.00 | *CCCCCCCCCCCCNC(=O)C(OC)C(OC)C(=O)N* (repeat unit)
85.00 | *Nc1cc(NC(=O)CCCCCCCCC(*)=O)cc(-c2nnc(-c3ccccn3)o2)c1 (repeat unit)
17.00 | *CCCCCCNC(=O)CCC(C)CC(=O)N* (repeat unit)
21.00 | *Oc1ccc(CC(NC(=O)CCc2ccc(OC(=O)CCCC(*)=O)cc2)C(=O)OCCOCCOCC)cc1 (repeat unit)
190.00 | *Oc1ccc(S(=O)(=O)c2ccc(Oc3ccc(C(C)(C)c4ccc(*)cc4)cc3[N+](=O)[O-])cc2)cc1 (repeat unit)
234.00 | *NNC(=O)c1ccc(C(*)=O)cc1OCCCCC (repeat unit)
203.00 | *Nc1cccc(CCc2ccc(NC(=O)c3ccc(C(*)=O)cc3)cc2)c1 (repeat unit)
56.00 | *CCOC(=O)NCCCCCCNC(=O)O* (repeat unit)
277.00 | *c1ccc(Oc2ccc(S(=O)(=O)c3ccc(Oc4ccc(-c5nc(-c6ccccc6)[nH]c5*)cc4)cc3)cc2)cc1 (repeat unit)
230.00 | *Oc1ccc(NC(=O)CCCCC(=O)Nc2ccc(*)cc2)cc1 (repeat unit)

The remaining lines, values behind:

SMILES | glass transition temperature [°C]
*C(*)C(=O)OC1CCCCC1 (repeat unit) | 140.00
*CC(c1ccccc1)C1C(=O)N(c2ccccc2)C(=O)C1* (repeat unit) | 221.00
*CCC([2H])C(*)([2H])C (repeat unit) | -47.50
*ON(C(F)(F)F)C(F)(Cl)C(*)(F)F (repeat unit) | -50.00
*c1ccc(Oc2ccc(C(=O)c3cccc(C(=O)c4ccc(Oc5ccc(-n6c(=O)c7cc8c(=O)n(*)c(=O)c8cc7c6=O)cc5C(F)(F)F)cc4)n3)cc2)c(C(F)(F)F)c1 (repeat unit) | 227.10
*CC(*)OC(=O)C1CCCCC1 (repeat unit) | 66.00
*c1ccc(C2C3C(=O)N(c4ccc(N5C(=O)C6ON(C)C(*)C6C5=O)cc4)C(=O)C3ON2C)cc1 (repeat unit) | 67.00
*CC(CC)(CO*)COC(=O)C(=C)C (repeat unit) | 40.00
*C(=O)c1ccc2nc(-c3ccccc3)c(-c3ccc(-c4nc5ccc(*)cc5nc4-c4ccccc4)cc3)nc2c1 (repeat unit) | 320.00
*c1ccc(-c2ccc(Oc3ccc(C4(C)CC(C)(C)c5ccc(Oc6ccc(-c7ccc(N8C(=O)c9ccc(Oc%10ccc(C(C)(C)c%11ccc(Oc%12ccc%13c(c%12)C(=O)N(*)C%13=O)cc%11)cc%10)cc9C8=O)cc7)cc6C(F)(F)F)cc54)cc3)c(C(F)(F)F)c2)cc1 (repeat unit) | 241.00
*CC(*)(C)C(=O)OCC[N+](C)(C)CCCCCCC (repeat unit) | -44.00
*CCCCCCOC(=O)Nc1cccc(P(=O)(c2ccccc2)c2cccc(NC(=O)O*)c2)c1 (repeat unit) | 30.00
*/N=N/c1ccc(Nc2ccc(C(=O)c3ccc(C(=O)c4ccc(Nc5ccc(*)cc5)cc4)cc3)cc2)cc1 (repeat unit) | 203.00
*CCOc1ccc(S(=O)(=O)c2ccc(OCCOP(=O)(O*)Oc3ccc([N+](=O)[O-])cc3)cc2)cc1 (repeat unit) | 56.00
*/C=C(/*)c1cccc[c]1[Ge]([CH3])([CH3])[CH3] (repeat unit) | 180.00
*C(=O)Nc1ccc(Oc2ccc(C3(c4ccc(Oc5ccc(NC(=O)c6ccc7c(c6)C(=O)N(c6ccc(Oc8ccc(Oc9ccc(N%10C(=O)c%11ccc(*)cc%11C%10=O)cc9)cc8)cc6)C7=O)cc5)cc4)NC(=O)c4ccccc43)cc2)cc1 (repeat unit) | 284.00
*/C=C/C1CC(*)C(C#N)(C[Si](C)(C)C)C1 (repeat unit) | 128.00
*/C=C/C1CC(*)C(C(=O)OC)C1C(=O)OC (repeat unit) | 77.30
*c1ccc(N(c2ccc(C#N)cc2)c2ccc(N3C(=O)c4ccc(Oc5ccc(C(C)(C)c6ccc(Oc7ccc8c(c7)C(=O)N(*)C8=O)cc6)cc5)cc4C3=O)cc2)cc1 (repeat unit) | 230.00
*CC(*)c1cccc(OC(C)=O)c1 (repeat unit) | 76.00
*CC(*)c1ccc(C([Si](C)(C)C)[Si](C)(C)C)cc1 (repeat unit) | 156.00
*CC(*)C(=O)Oc1ccccc1 (repeat unit) | 60.00
*CC(*)C(=O)N1CCCCC1 (repeat unit) | 108.00
*CC(*)c1ccc([Si](C)(O[Si](C)(C)C)O[Si](C)(C)C)cc1 (repeat unit) | 54.00
